Data set [1] has as its system Tick-borne encephalitis virus. The experiment in a line: microbe, parasite or virus in culture. The class given is functional, organism-based. The settings on record: PEK.
Data set [2] is described as follows: Cytotoxicity against porcine PEK cells assessed as reduction in cell viability after 7 days by microscopic method. Particulars: pig. Type of data set: cell-based, Sus scrofa.
Data set [3] can be described thus: Cytotoxicity against porcine PEK cells assessed as reduction in cell viability after 24 hrs by microscopic method. Type of data set: cell-based, Sus scrofa. Particulars: pig.
A short description of data set [4]: Selectivity index, ratio of CC50 for porcine PEK cells assessed as reduction in cell viability after 24 hrs by microscopic method to EC50 for TBEV Absettarov infected in porcine PEK cells assessed as plaque reduction preincubated for 1 hr followed by overlaying with 1.26% methylcellulose and measured after 6 days by gentian violet staining-based assay. Type of data set: toxicity. The settings on record: pig, read-out: Ratio CC50/EC50.

The text below walks through data of ChEMBL document CHEMBL4616639, “Simplistic perylene-related compounds as inhibitors of tick-borne encephalitis virus reproduction” (Bioorg Med Chem Lett, 2020).

Consider `OC[C@H]1O[C@@H](n2cnc3c(NCc4c5ccccc5cc5ccccc45)ncnc32)[C@H](O)[C@@H]1O`, for which the EC50 in data set [1] turned out to be 22 µM. The cytotoxic concentration (CC50) at 168 h in data set [2] is more than 50 µM. Further, the CC50 at 24 h in data set [3] is more than 50 µM.
In turn, `CCCCNC(=O)c1ccc(-c2ccc3c4cccc5cccc(c6cccc2c63)c54)s1` had an EC50 in data set [1] of 0.0039 µM. Further, the half-maximal cytotoxic concentration (CC50) at 168 h in data set [2] was more than 100 µM. Further, in data set [3], the half-maximal cytotoxic concentration (CC50) at 24 h was more than 100 µM.
In data set [1], `O=C(O)c1ccc2c3cccc4cccc(c5cccc1c52)c43` showed an EC50 of 0.037 µM. Moreover, in data set [2], the 50% cytotoxic concentration (CC50) at 168 h was 37 µM. In data set [3], the 50% cytotoxic concentration (CC50) at 24 h was more than 50 µM.
On the same counts, the results for `O=C(NCCCCO)c1ccc(-c2ccc3c4cccc5cccc(c6cccc2c63)c54)s1` are 0.009 µM, more than 70 µM and more than 70 µM.
On the same counts, the results for `O=c1[nH]c(=O)n([C@@H]2O[C@H](CO)[C@@H](O)[C@H]2O)cc1C#Cc1ccc2c3cccc4cccc(c5cccc1c52)c43` are 0.0077 µM, more than 100 µM and more than 100 µM.
On the same counts, the results for `CC(=O)Nc1ccc(C#Cc2ccc3c4cccc5cccc(c6cccc2c63)c54)cc1` are 0.089 µM, more than 100 µM and more than 100 µM.
Consider `CO[C@@H]1[C@H](O)[C@@H](CO)O[C@H]1n1cc(C#Cc2ccc3c4cccc5cccc(c6cccc2c63)c54)c(=O)[nH]c1=O`, for which the EC50 in data set [1] turned out to be 0.006 µM. Also, in data set [2], the CC50 at 168 h turned out to be 38 µM. For the same compound, the half-maximal cytotoxic concentration (CC50) at 24 h in data set [3] was more than 50 µM.
Take `O=c1[nH]c(=O)n([C@@H]2O[C@H](CO)[C@@H](O)[C@@H]2O)cc1C#Cc1ccc2c3cccc4cccc(c5cccc1c52)c43`: in data set [2], the CC50 at 168 h was more than 50 µM. Moreover, the CC50 at 24 h in data set [3] is more than 50 µM.
`O=C(O)c1ccc(-c2ccc3c4cccc5cccc(c6cccc2c63)c54)s1`: the selectivity ratio at 24 h in data set [4] was more than 30000. Moreover, a half-maximal effect in data set [1] (EC50) was put at 0.0016 µM. For the same compound, the CC50 at 168 h in data set [2] came out at 26 µM. Moreover, the CC50 at 24 h in data set [3] is more than 70 µM.
The compound `Cc1cc(O)c2c3c4c(cc(O)c13)C(C)(C)C(=O)c1c(O)cc(O)c(c1-4)C2=O` [HELIOMYCIN] registered an EC50 in data set [1] of 0.15 µM. Also, the CC50 at 168 h in data set [2] is 3.7 µM. For the same compound, the CC50 at 24 h in data set [3] was determined as 3.7 µM.
As for `O=c1[nH]cc(C#Cc2ccc3c4cccc5cccc(c6cccc2c63)c54)c(=O)[nH]1`, in data set [1], a half-maximal response (EC50) required 0.008 µM. Besides, in data set [2], the cytotoxic concentration (CC50) at 168 h came out at 37 µM. For the same compound, the half-maximal cytotoxic concentration (CC50) at 24 h in data set [3] is more than 100 µM.
On the same counts, the results for `O=C(c1ccc(-c2ccc3c4cccc5cccc(c6cccc2c63)c54)s1)N(CCO)CCO` are 0.015 µM, more than 70 µM and more than 70 µM.
In turn, `CN(C)c1ccc(C#Cc2ccc3c4cccc5cccc(c6cccc2c63)c54)cc1` came in with an EC50 in data set [1] of 0.025 µM. In data set [2], the 50% cytotoxic concentration (CC50) at 168 h is more than 100 µM. The CC50 at 24 h in data set [3] is more than 100 µM.

A word on the EC50: it is the midpoint of the concentration-response curve. Low values mean an effect from little substance, high ones a need for much substance. One may read the CC50 as the concentration at which the toxic effect on the cells reaches its halfway point.
